Test results reported in PubChem BioAssay (NCI).
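How tested: cells in 96-well plates exposed to compound for 48 hours at five concentrations. GI50 is the concentration that inhibits growth by half. The concentration for full growth arrest is given as TGI.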

Legend:
Experiment in all cases: growth of human tumour cells (NCI), 48 h
786-0 renal = test system: 786-0 renal
A549 NSCLC = test system: A549 NSCLC
ACHN renal = test system: ACHN renal
BT-549 breast = test system: BT-549 breast
CAKI-1 renal = test system: CAKI-1 renal
CCRF-CEM leukemia = test system: CCRF-CEM leukemia
COLO 205 colon = test system: COLO 205 colon
DU-145 prostate = test system: DU-145 prostate
EKVX NSCLC = test system: EKVX NSCLC
HCC-2998 colon = test system: HCC-2998 colon
HCT-116 colon = test system: HCT-116 colon
HCT-15 colon = test system: HCT-15 colon
HL-60(TB) leukemia = test system: HL-60(TB) leukemia
HOP-62 NSCLC = test system: HOP-62 NSCLC
HOP-92 NSCLC = test system: HOP-92 NSCLC
HS 578T breast = test system: HS 578T breast
IGROV1 ovarian = test system: IGROV1 ovarian
K-562 leukemia = test system: K-562 leukemia
KM12 colon = test system: KM12 colon
LOX IMVI melanoma = test system: LOX IMVI melanoma
M14 melanoma = test system: M14 melanoma
MCF7 breast = test system: MCF7 breast
MDA-MB-231 breast = test system: MDA-MB-231 breast
MDA-MB-435 = test system: MDA-MB-435
MOLT-4 leukemia = test system: MOLT-4 leukemia
NCI-H226 lung = test system: NCI-H226 lung
NCI-H23 lung = test system: NCI-H23 lung
NCI-H460 lung = test system: NCI-H460 lung
NCI-H522 lung = test system: NCI-H522 lung
NCI/ADR-RES ovarian = test system: NCI/ADR-RES ovarian
OVCAR-3 ovarian = test system: OVCAR-3 ovarian
OVCAR-4 ovarian = test system: OVCAR-4 ovarian
OVCAR-5 ovarian = test system: OVCAR-5 ovarian
OVCAR-8 ovarian = test system: OVCAR-8 ovarian
PC-3 prostate = test system: PC-3 prostate
RPMI-8226 leukemia = test system: RPMI-8226 leukemia
RXF 393 renal = test system: RXF 393 renal
SF-268 CNS = test system: SF-268 CNS
SF-295 CNS = test system: SF-295 CNS
SF-539 CNS = test system: SF-539 CNS
SK-MEL-2 melanoma = test system: SK-MEL-2 melanoma
SK-MEL-28 melanoma = test system: SK-MEL-28 melanoma
SK-MEL-5 melanoma = test system: SK-MEL-5 melanoma
SK-OV-3 ovarian = test system: SK-OV-3 ovarian
SN12C renal = test system: SN12C renal
SNB-19 CNS = test system: SNB-19 CNS
SR leukemia = test system: SR leukemia
SW-620 colon = test system: SW-620 colon
T-47D breast = test system: T-47D breast
TK-10 renal = test system: TK-10 renal
U251 CNS = test system: U251 CNS
UACC-257 melanoma = test system: UACC-257 melanoma
UACC-62 melanoma = test system: UACC-62 melanoma
UO-31 renal = test system: UO-31 renal

## C=C(CN1CCc2c([nH]c3ccccc23)C1)c1ccc(C(=O)Nc2ccccc2N)cc1
786-0 renal
  GI50: 4.96 µM
  TGI: 23.6 µM
A549 NSCLC
  GI50: 4.85 µM
  TGI: 32 µM
ACHN renal
  GI50: 1.74 µM
  TGI: 10.4 µM
BT-549 breast
  GI50: 5.29 µM
  TGI: 17.7 µM
CAKI-1 renal
  GI50: 1.67 µM
  TGI: 8.25 µM
CCRF-CEM leukemia
  GI50: 0.0581 µM
  TGI: 46.3 µM
COLO 205 colon
  GI50: 6.35 µM
  TGI: 20.9 µM
DU-145 prostate
  GI50: 3.85 µM
  TGI: 13.9 µM
EKVX NSCLC
  GI50: 2.14 µM
  TGI: 13.5 µM
HCC-2998 colon
  GI50: 0.731 µM
  TGI: 1.91 µM
HCT-116 colon
  GI50: 2.19 µM
  TGI: 32.9 µM
HCT-15 colon
  GI50: 3.5 µM
  TGI: 28.1 µM
HL-60(TB) leukemia
  GI50: 0.67 µM
  TGI: 7.25 µM
HOP-62 NSCLC
  GI50: 4.08 µM
  TGI: 20.8 µM
HOP-92 NSCLC
  GI50: 1.66 µM
  TGI: 11.4 µM
HS 578T breast
  GI50: 4.75 µM
  TGI: 23.3 µM
IGROV1 ovarian
  GI50: 1.08 µM
  TGI: 18.9 µM
K-562 leukemia
  GI50: 1.01 µM
  TGI: 17 µM
KM12 colon
  GI50: 3.42 µM
  TGI: 12.6 µM
LOX IMVI melanoma
  GI50: 4.52 µM
  TGI: 10.2 µM
M14 melanoma
  GI50: 4.13 µM
  TGI: 14.7 µM
MCF7 breast
  GI50: 3.98 µM
  TGI: 22.9 µM
MDA-MB-231 breast
  GI50: 2.74 µM
  TGI: 12.9 µM
MDA-MB-435
  GI50: 8.47 µM
  TGI: 17.7 µM
MOLT-4 leukemia
  GI50: 0.116 µM
  TGI: 0.405 µM
NCI-H226 lung
  GI50: 1.32 µM
  TGI: 10.1 µM
NCI-H23 lung
  GI50: 3.73 µM
  TGI: 19.9 µM
NCI-H460 lung
  GI50: 3.57 µM
  TGI: 21 µM
NCI-H522 lung
  GI50: 4.13 µM
  TGI: 11.5 µM
NCI/ADR-RES ovarian
  GI50: 1.51 µM
  TGI: 17.1 µM
OVCAR-3 ovarian
  GI50: 18.4 µM
  TGI: 29.1 µM
OVCAR-4 ovarian
  GI50: 5.48 µM
  TGI: 13.5 µM
OVCAR-5 ovarian
  GI50: 7.15 µM
  TGI: 31.6 µM
OVCAR-8 ovarian
  GI50: 1.9 µM
  TGI: 14.7 µM
PC-3 prostate
  GI50: 1.41 µM
  TGI: 29.9 µM
RPMI-8226 leukemia
  GI50: 0.356 µM
  TGI: 3.57 µM
RXF 393 renal
  GI50: 4.27 µM
  TGI: 12.8 µM
SF-268 CNS
  GI50: 2.89 µM
  TGI: 10.8 µM
SF-295 CNS
  GI50: 16.6 µM
  TGI: 27.8 µM
SF-539 CNS
  GI50: 2.76 µM
  TGI: 9.81 µM
SK-MEL-2 melanoma
  GI50: 4.54 µM
  TGI: 22 µM
SK-MEL-28 melanoma
  GI50: 2.25 µM
  TGI: 16.1 µM
SK-MEL-5 melanoma
  GI50: 2.61 µM
  TGI: 6.88 µM
SK-OV-3 ovarian
  GI50: 3.14 µM
  TGI: 11.6 µM
SN12C renal
  GI50: 2.33 µM
  TGI: 9.98 µM
SNB-19 CNS
  GI50: 10.7 µM
  TGI: 30.8 µM
SR leukemia
  GI50: 0.622 µM
  TGI: 50 µM
SW-620 colon
  GI50: 3.89 µM
  TGI: 28.5 µM
T-47D breast
  GI50: 8.5 µM
  TGI: 50 µM
TK-10 renal
  GI50: 2.6 µM
  TGI: 9.58 µM
U251 CNS
  GI50: 1.42 µM
  TGI: 7.73 µM
UACC-257 melanoma
  GI50: 3.2 µM
  TGI: 11.6 µM
UACC-62 melanoma
  GI50: 1.59 µM
  TGI: 7.43 µM
UO-31 renal
  GI50: 3.53 µM
  TGI: 9.89 µM
